The record followed here is patent US20040121965A1, “Method of treating resistant tumors” (Wyeth Holdings Corporation, priority 2002, published 2004).

Read-outs that look alike come from different tables or passages of the source. A value given as a limit tells only on which side of the number the result lay.

One assay has as its system KB-V1 (MDR1++). Put plainly: Cell survival assay (SRB), KB-V1 (MDR1++). Particulars: for IC50: Homo sapiens.
For a further assay, the system named is KB-3-1. Kind of assay: Cell survival assay (SRB), KB-3-1. It counts as cell-based, human. The source says: Cells lines with previously known mechanisms of resistance. […] Res. 8: 207-218,1996); KB-3-1 (parental derived from an epidermoid carcinoma), KB-8.5, KB-V1 (Akiyama S-I, Fojo A, Hanover J A, Pastan I, Gottesman M M. Isolation and genetic characterization of human KB cell lines resistant to multiple drugs. Somatic Cell Mol. Gen., 11: 117-126,1985; Shen D-W, Cardarelli C, Hwang J, Cornwell M, Richert N, Ishii S, Pastan I, Gottesman MM. […] J. Biol. Chem., 261: 7762-7770, 1986); and HL-60 (parental derived from human leukemia) and HL60/AR (McGrath T., Center M. S. Adriamycin resistance in HL60 cells in the absence of detectable P-glycoprotein. Biochem. Res. Commun., 145:1171-1176,1987); A549 and A549.EpoB40 (He L., Yang C.-P.H., Horwitz S. B. Mutations in p-tubulin map to domains involved in regulation of microtubule stability in epothilone-resistant cell lines. Molecular Cancer Therapeutics. 1: 3-10, 2001). HCT-15 human colon carcinoma and DLD-1 human colon carcinoma are obtained from American Tissue Culture Collection. The MX-1W carcinoma is a Wyeth variant orginally obtained as MX-1 breast carcinoma from the National Cancer Institute. Cell lines selected for resistance to Representative Example 129. KB-3-1 cells are selected for resistance to Example 129 by chronically exposing cells to increasing concentrations of Example 129.
2.2. Cell Survival Assay: Standard Pharmacological Test Procedure. The concentration of candidate inhibitor required to inhibit 50% of cell growth (IC50) is done according to previously reported methods. […] Compounds are serially diluted into media as 2× stocks and 100 μl added to cells in duplicate. Compounds are incubated with cells for 3 days. At the end of the incubation period the sulforhodamine B (SRB) assay, which measures protein content as an assessment of cell survival, is performed as described previously (Skehan P, Storeng R, Scudiero D, Monks A, McMahon J, Vistica D, Warren J T, Bokesch H, Kenney S, Boyd MR. New calorimetric cytotoxicity assay for anticancer-drug screening. J Natl Cancer Inst 1990 Jul 4;82(13):1107-12) with some modification as follows. For KB-3-1 cells with 20% FCS, media is gently decanted and replaced with 200 μl of serum-free media mixed with cold 50% TCA for a final concentration of 10% TCA. The plates are incubated for 1 hr at 4° C., followed by washing 5 times in cold distilled water, then air dried overnight. The fixed cells are stained for 10 min with 80 μl of 0.04% SRB solution prepared in 1% glacial acetic acid. Stain is discarded and plates washed 5 times in 1% glacial acetic acid, then air-dried until completely dry. Stained cell product is dissolved in 150 μl of 10 mM Trizma Base and placed on a shaker for 20 minutes until fully dissolved. Absorbance is read on a Victor V multi-label plate reader (Perkin Elmer, Gaithersburg, Md.).

For the next assay, the system named is KB-8-5 (MDR1+). Kind of assay: Cell survival assay (SRB), KB-8-5 (MDR1+). Particulars: for IC50: Homo sapiens.
The mark [1] stands for this setting: read-out: In vitro IC50 (nM) KBV1.
Setting [2] is: Homo sapiens, KB 3-1, KB-3-1 cells (paclitaxel-sensitive parent), read-out: In vitro IC50 (nM) KB-3-1.
Setting [3] is: MDR1, read-out: In vitro IC50 (nM) KB85.

In general, IC50 refers to the midpoint of a concentration-inhibition curve. Turning to `CN[C@H](C(=O)N[C@H](C(=O)N(C)[C@H](/C=C(\C)C(=O)O)C(C)C)C(C)(C)c1ccc(OC)cc1)C(C)(C)c1ccccc1` [Example 87, N,β,β-trimethyl-L-phenylalanyl-N-[(1S,2E)-3-carboxy-1-isopropyl-2-butenyl]-N,O,β,β-tetramethyl-L-tyrosinamide], the “Ratio KBV1/KB” value with KB-V1 (MDR1++) is 72.4. For the same compound, the IC50 in the assay on KB-V1 (MDR1++) (setting [1]) stood at 1970 nM; in the assay with KB-3-1 (setting [2]) it was 27.2 nM; in the assay with KB-8-5 (MDR1+) (setting [3]) it was 56.3 nM. Further, the “Ratio KB85/KB” value with KB-8-5 (MDR1+) worked out at 2.1.

Take `CNC(C(=O)N[C@H](C(=O)N(C)[C@H](/C=C(\C)C(=O)O)C(C)C)C(C)(C)C)C1(c2ccccc2)CC1` (stereo in doubt) [Example 142, (2E,4S)-2,5-dimethyl-4-(methyl{3-methyl-N-[(2S)-2-(methylamino)-2-(1-phenylcyclopropyl)acetyl]-L-valyl}amino)hex-2-enoic Acid]: the “Ratio KBV1/KB” value in the assay on KB-V1 (MDR1++) is on record as 13.2. Moreover, the figures for the half-maximal inhibitory concentration (IC50) in the assay with KB-V1 (MDR1++) (setting [1]), in the assay with KB-3-1 (setting [2]) and with KB-8-5 (MDR1+) (setting [3]) were above 3000 nM, 227 nM and 513 nM, respectively. The “Ratio KB85/KB” value with KB-8-5 (MDR1+) was 2.2.

Consider `CN[C@H](C(=O)N[C@@H](CC(C)C)C(=O)N(C)[C@H](/C=C(\C)C(=O)O)C(C)C)C(C)(C)c1ccccc1.O=C(O)C(F)(F)F` [Example 96, N,β,β-trimethyl-L-phenylalanyl-N^1-[(1S,2E)-3-carboxy-1-isopropylbut-2-enyl]-N^1-methyl-L-leucinamide Trifluoroacetic Acid], for which, in the assay on KB-V1 (MDR1++), the “Ratio KBV1/KB” value amounted to 76.1. For the same compound, the IC50 in the assay on KB-V1 (MDR1++) (setting [1]) turned out to be 1440 nM; in the assay with KB-3-1 (setting [2]), 19 nM; with KB-8-5 (MDR1+) (setting [3]), 30 nM. The “Ratio KB85/KB” value in the assay with KB-8-5 (MDR1+) is recorded as 1.6.

Consider `CN[C@H](C(=O)N[C@@H](C(=O)N(C)[C@H](/C=C(\C)C(=O)O)C(C)C)C(C)C)C(C)(C)c1ccccc1` [Example 131, N,β,β-trimethyl-L-phenylalanyl-N^1-[(1S,2E)-3-carboxy-1-isopropylbut-2-enyl]-N^1-methyl-D-valinamide], for which, in the assay with KB-V1 (MDR1++), the “Ratio KBV1/KB” value was determined as 512.8. The IC50 with KB-V1 (MDR1++) (setting [1]) was at least 3000 nM; in the assay with KB-3-1 (setting [2]), 6 nM; in the assay on KB-8-5 (MDR1+) (setting [3]), 12 nM. Further, the “Ratio KB85/KB” value in the assay on KB-8-5 (MDR1+) is reported as 2.0.

Consider `CCOC(=O)/C(C)=C/[C@H](C(C)C)N(C)C(=O)[C@@H](NC(=O)[C@@H](NC)C(C)(C)C1CCCCC1)C(C)(C)C` [Reference Example 100, 3-Cyclohexyl-N-methyl-L-valyl-N^1-[(1S,2E)-4-ethoxy-1-isopropyl-3-methyl-4-oxo-2-butenyl]-N^1,3-dimethyl-L-valinamide], for which, in the assay on KB-V1 (MDR1++), the “Ratio KBV1/KB” value was determined as 8.5. Further, the results for the IC50 in the assay on KB-V1 (MDR1++) (setting [1]), in the assay on KB-3-1 (setting [2]) and in the assay with KB-8-5 (MDR1+) (setting [3]) were 1950 nM, 229 nM and 602 nM, respectively. In the assay with KB-8-5 (MDR1+), the “Ratio KB85/KB” value came out at 2.6.

Turning to `CN[C@@H](C(=O)N[C@H](C(=O)N(C)[C@H](/C=C(\C)C(=O)O)C(C)C)C(C)(C)C)C(C)(C)c1ccc(C)cc1` [Example 12, N,β,β,4-Tetramethyl-D-phenylalanyl-N^1-[(1S,2E)-3-carboxy-1-isopropyl-2-butenyl]-N^1,3-dimethyl-L-valinamide], the “Ratio KBV1/KB” value in the assay on KB-V1 (MDR1++) is given as 63.1. Besides, the values for the IC50 in the assay on KB-V1 (MDR1++) (setting [1]), in the assay on KB-3-1 (setting [2]) and with KB-8-5 (MDR1+) (setting [3]) were 1070 nM, 17 nM and 27.5 nM, respectively. For the same compound, the “Ratio KB85/KB” value in the assay on KB-8-5 (MDR1+) came out at 1.6.

With `CN[C@H](C(=O)N[C@H](C(=O)N(C)[C@H](/C=C(\C)C(=O)O)C(C)C)C(C)(C)C)C(C)(C)C` [Example 140, N,3-dimethyl-L-valyl-N^1-[(1S,2E)-3-carboxy-1-isopropyl-2-butenyl]-N^1,3-dimethyl-L-valinamide], in the assay with KB-V1 (MDR1++), the “Ratio KBV1/KB” value turned out to be 26.4. The IC50 in the assay with KB-V1 (MDR1++) (setting [1]) was at least 3000 nM; in the assay with KB-3-1 (setting [2]), 114 nM; with KB-8-5 (MDR1+) (setting [3]), 181 nM. The “Ratio KB85/KB” value in the assay with KB-8-5 (MDR1+) was found to be 1.6.

In the case of `CN[C@@H](C(=O)N[C@H](C(=O)N(C)[C@H](/C=C(\C)C(=O)O)C(C)C)C(C)(C)C)C(C)(C)c1ccc(C)c(C)c1` [Example 15, N,β,β,3,4-Pentamethyl-D-phenylalanyl-N^1-[(1S,2E)-3-carboxy-1-isopropyl-2-butenyl]-N^1,3-dimethyl-L-valinamide], the “Ratio KBV1/KB” value in the assay with KB-V1 (MDR1++) came out at 87.1. Further, the IC50 in the assay with KB-V1 (MDR1++) (setting [1]) stood at 1200 nM; in the assay with KB-3-1 (setting [2]), 13.8 nM; in the assay on KB-8-5 (MDR1+) (setting [3]) it was 21.4 nM. Besides, in the assay on KB-8-5 (MDR1+), the “Ratio KB85/KB” value was found to be 1.6.

As for `CNC(C(=O)NC(C(=O)N(C)C(C=C(C)C(=O)O)CC(C)C)C(C)(C)C)C(C)(C)c1ccccc1.O=C(O)C(F)(F)F` (centres unmarked) [Example 104, 4-{[3,3-Dimethyl-2-(3-methyl-2-methylamino-3-phenyl-butyrylamino)-butyryl]-methyl-amino}-2,6-dimethyl-hept-2-enoic Acid Trifluoroacetic Acid], in the assay on KB-V1 (MDR1++), the “Ratio KBV1/KB” value stood at 79.3. The IC50 was determined as 2200 nM in the assay with KB-V1 (MDR1++) (setting [1]), 27.7 nM in the assay with KB-3-1 (setting [2]) and 50.5 nM with KB-8-5 (MDR1+) (setting [3]). Further, the “Ratio KB85/KB” value in the assay with KB-8-5 (MDR1+) was 1.8.

For `CCCCCC(C)(C)[C@H](NC)C(=O)N[C@H](C(=O)N(C)[C@H](/C=C(\C)C(=O)O)C(C)C)C(C)(C)C` [Example 50, (2E,4S)-4-[((2S)-2-{[(2S)-3,3-dimethyl-2-(methylamino)octanoyl]amino}-3,3-dimethylbutanoyl)(methyl)amino]-2,5-dimethyl-2-hexenoic acid], the “Ratio KBV1/KB” value in the assay on KB-V1 (MDR1++) is 58.9. Moreover, the IC50 in the assay with KB-V1 (MDR1++) (setting [1]) is 513 nM; in the assay with KB-3-1 (setting [2]) it was 8.7 nM; in the assay with KB-8-5 (MDR1+) (setting [3]), 19 nM. Besides, in the assay on KB-8-5 (MDR1+), the “Ratio KB85/KB” value stood at 2.2.

Turning to `CN[C@H](C(=O)N[C@H](C(=O)N(C)[C@H](/C=C(\C)C(=O)O)C(C)C)C(C)(C)c1ccc(C(=O)c2ccccc2)cc1)C(C)(C)c1ccccc1` [Example 90, N,β,β-trimethyl-L-phenylalanyl-4-benzoyl-N-[(1S,2E)-3-carboxy-1-isopropyl-2-butenyl]-N,β,β-trimethyl-L-phenylalaninamide], the “Ratio KBV1/KB” value with KB-V1 (MDR1++) is on record as 133.9. Besides, the figures for the IC50 in the assay on KB-V1 (MDR1++) (setting [1]), with KB-3-1 (setting [2]) and with KB-8-5 (MDR1+) (setting [3]) were at least 3000 nM, 22.4 nM and 96.9 nM, respectively. Besides, the “Ratio KB85/KB” value in the assay on KB-8-5 (MDR1+) turned out to be 4.3.

In the case of `COc1ccc(C[C@H]2NC(=O)/C=C/C[C@@H]([C@H](C)[C@H]3O[C@@H]3c3ccccc3)OC(=O)[C@H](CC(C)C)OC(=O)[C@H](C)CNC2=O)cc1Cl` [Cryptophycin-1], in the assay on KB-3-1 (KB-3-1 parental, Table 8, read-out: KB-3-1 IC50), the IC50 is 0.0064 ± 0.0045 nM.

With `CCN[C@H](C(=O)N[C@H](C(=O)N(C)[C@H](/C=C(\C)C(=O)O)C(C)C)C(C)(C)C)C(C)(C)c1ccccc1` [Example 151, N-ethyl-β,β-dimethyl-L-phenylalanyl-N^1-[(1S,2E)-3-carboxy-1-isopropylbut-2-enyl]-N^1,3-dimethyl-L-valinamide], the “Ratio KBV1/KB” value in the assay with KB-V1 (MDR1++) was 11.3. Further, in the assay on KB-8-5 (MDR1+), the “Ratio KB85/KB” value worked out at 1.5.

For `COc1cc2c(c(OC)c1OC)-c1ccc(OC)c(=O)cc1[C@@H](NC(C)=O)CC2` [colchicine, reference compound], the IC50 in the assay with KB-V1 (MDR1++) (read-out: KB-V1 (MDR1++) IC50, nM (N)) came to 2440 nM; in the assay with KB-8-5 (MDR1+) (MDR1, read-out: KB-8-5 (MDR1+) IC50, nM (N)) it was 62.7 nM. In addition, the “resistance of KB-8-5 cells” value with KB-8-5 (MDR1+) worked out at 9.8 fold.

Take `CN[C@H](C(=O)N[C@H](C(=O)N(C)[C@H](/C=C(\C)C(=O)NC(CCSC)C(=O)OC)C(C)C)C(C)(C)C)C(C)(C)c1ccccc1` (some centres unmarked) [Example 144, 2-(4-{[3,3-Dimethyl-2-(3-methyl-2-methylamino-3-phenyl-butyrylamino)-butyryl]-methyl-amino}-2,5-dimethyl-hex-2-enoylamino)-4-methylsulfanyl-butyric Acid Methyl]: the “Ratio KB85/KB” value in the assay on KB-8-5 (MDR1+) is on record as 14.9. Moreover, the IC50 in the assay with KB-8-5 (MDR1+) (setting [3]) is 55 nM.

With `CCN[C@H](C(=O)N[C@H](C(=O)N(C)[C@H](/C=C(\C)C(=O)O)C(C)C)C(C)(C)C)C(C)(C)c1ccccc1` [Example 32, N-Ethyl-β,β-dimethylphenylalanyl-N^1-[(1S,2E)-3-carboxy-1-isopropyl-2-butenyl]-N^1,3-dimethyl-L-valinamide], in the assay on KB-V1 (MDR1++), the “Ratio KBV1/KB” value came out at 64.5. Besides, the “Ratio KB85/KB” value with KB-8-5 (MDR1+) worked out at 2.6.
